Source: patent US20040198716A1, “Cysteine protease inhimbitors” (priority 2001, published 2004)

Key:
α-chymotrypsin = α-chymotrypsin (Bos taurus, UniProt P00766, DEL14-15/DEL147-148); experiment: Cross-reactivity protease inhibition assay (QuantiCleave), chymotrypsin; assay type: biochemical; settings: ratio Abs450nm with inhibitor / without inhibitor; 100 μM compound
Protocol: (§1) To evaluate whether inhibition was specific to caspase-3 or applicable to other cysteine proteases or other proteases, inhibitor molecules were assayed for their capacity to inhibit additional non-caspase proteases. Three proteases, TPCK-trypsin, α-chymotrypsin and papain, were used to test for protease inhibition cross-reactivity. Protease inhibition assays were performed in 96-well flat-bottomed micro-titer plates with the QuantiCleave™ protease assay kit (Pierce, Rockford, Ill.) according to the manufacturer's instructions. Briefly, the assay conditions contained 100 μM compound, 2 mg/mL of succinylated-casein and 0.15 mg/mL of the protease. The assay incubated in a final volume of 150 μLs 0.05 M sodium borate pH 8.5 buffer (NaB-buffer) for 20 minutes at 25° C. After the protease reaction, 50 μLs of a trinitrobenzenesulfonic acid (TNBSA) solution (1:15, TNBSA:NaB-buffer) was added to each reaction and further incubated for 20 minutes at 25° C. Absorbance values at 450 nm were read in an Emax (Molecular Devices, Sunnyvale, Calif.) micro plate reader. Appropriate controls were performed, including known inhibitors (soybean trypsin inhibitor, aminoethyl-benzenesulfonic acid and leupeptin) for the proteases.
(§2) Relative activities in the presence of inhibitor were calculated by taking the ratio of absorbance for a reaction containing inhibitor to the absorbance for a reaction without inhibitor. Significant inhibition was determined by testing the null hypothesis of equivalence between the mean absorbance of reactions containing inhibitor and the mean absorbance of reactions without inhibitor (2 tailed t-test, 2 df).
(§3) The results are given in Table V in terms of cross-reactivities, relative activity and significant difference of 100 μM protease inhibitors on the proteases trypsin, chymotrypsin and papain.

papain = molecular target: T1, papain (Carica papaya, UniProt P00784); experiment: Cross-reactivity protease inhibition assay (QuantiCleave), papain; assay type: biochemical; settings: ratio Abs450nm with inhibitor / without inhibitor; 100 μM compound
T1 sequence (P00784 134-345): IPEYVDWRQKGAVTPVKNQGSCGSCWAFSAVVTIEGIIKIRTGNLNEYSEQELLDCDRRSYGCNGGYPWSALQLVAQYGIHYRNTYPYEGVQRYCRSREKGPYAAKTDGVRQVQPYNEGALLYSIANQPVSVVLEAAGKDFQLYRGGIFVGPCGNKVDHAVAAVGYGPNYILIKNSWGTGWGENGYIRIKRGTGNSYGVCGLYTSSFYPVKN
Protocol: as §1, §2, §3

TPCK-trypsin = molecular target: T2, TPCK-trypsin (Bos taurus, UniProt P00760); experiment: Cross-reactivity protease inhibition assay (QuantiCleave), trypsin; assay type: biochemical; settings: ratio Abs450nm with inhibitor / without inhibitor; 100 μM compound
T2 sequence (P00760 24-246): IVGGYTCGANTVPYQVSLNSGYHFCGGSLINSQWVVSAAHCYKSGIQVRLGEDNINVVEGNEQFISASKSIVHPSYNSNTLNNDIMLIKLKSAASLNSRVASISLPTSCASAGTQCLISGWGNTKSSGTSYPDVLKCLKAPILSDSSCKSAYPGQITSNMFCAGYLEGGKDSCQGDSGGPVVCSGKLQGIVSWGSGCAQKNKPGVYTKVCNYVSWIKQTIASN
Protocol: as §1, §2, §3

[1] = molecular target: T3, human recombinant caspase-3 (Homo sapiens, UniProt P42574); experiment: In vitro high throughput caspase-3 assay; assay type: biochemical; settings: for Percent Activity: percentage of the positive control, 20-250 μM test compound, lower = better inhibition, negative = better than control caspase inhibitor; for Caspase-3 Activity: relative activity as a fraction, values match Table II percent activity divided by 100; for Ki: calculated from IC50 according to Equation 1, read-out: Ki(app); for IC50: fixed substrate concentration of 55 μM, inhibitors 75 to 0.067 μM in duplicate
T3 construct: purchased Sigma
T3 sequence (P42574 29-175 limits assumed): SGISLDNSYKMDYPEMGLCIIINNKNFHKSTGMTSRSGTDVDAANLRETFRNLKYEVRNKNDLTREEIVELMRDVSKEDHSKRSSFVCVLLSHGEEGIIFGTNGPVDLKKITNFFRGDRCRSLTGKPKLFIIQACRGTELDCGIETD
T3 sequence (P42574 176-277 limits assumed): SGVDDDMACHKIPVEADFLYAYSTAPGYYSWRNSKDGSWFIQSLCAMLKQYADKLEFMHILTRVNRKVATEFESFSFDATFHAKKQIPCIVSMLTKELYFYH
Protocol: Purified Human recombinant caspase-3, fluorescence labeled substrate (Acetyl-Asp-Glu-Val-Asp-7-amino-4-trifluoromethyl coumarin), and known inhibitor (Z-Asp-Glu-Val-Asp-fluoromethyl ketone) can be purchased from Sigma Chemical Co. (St. Louis, Mo.). The enzyme reactions are carried out at room temperature in 10 mM PIPES pH=7.4, 2 mM EDTA, 0.1% CHAPS, 5 mM DTT reaction buffer. Each well on the 96 well plate contains the above reaction buffer plus 55 μM fluorescence labeled substrate, 0.125 μg caspase-3, and 20-250 μM test compound. Positive and negative controls are present on each assay plate. A standard curve is generated using 7-amino-4-trifluoromethyl coumarin in the concentration range from 0.15 μM to 5.0 μM. The reactions are preferably read every 0.5 hours using a fluorescence microtiter plate reader set for 390 nm excitation and 538 nm emission for the first 4 hours after which the plates are left at room temperature overnight. One reading is taken the next morning as a final measurement.
To determine the caspase inhibitory activity of these compounds, the in vitro high throughput caspase-3 assay presented herein was utilized. Purified human recombinant caspase-3, fluorescence labeled substrate (Acetyl-Asp-Glu-Val-Asp-7-amino-4-trifluoromethyl coumarin), and known inhibitor (Z-Asp-Glu-Val-Asp-fluoromethyl ketone) were purchased from Sigma. The enzyme reactions were carried out at room temperature in 10 mM PIPES pH=7.4, 2 mM EDTA, 0.1% CHAPS, 5 mM DTT reaction buffer. Each well on the 96 well plate contained the above reaction buffer plus 55 μM fluorescence labeled substrate, 0.125 μg caspase-3, and 20-250 μM test compound. Positive and negative controls were present on each assay plate. A standard curve was generated using 7-amino-4-trifluoromethyl coumarin in the concentration range from 0.15 μM to 5.0 μM. The reactions were read every 0.5 hours using a fluorescence microtiter plate reader set for 390 nm excitation and 538 nm emission for the first 4 hours after which the plates were left at room temperature overnight. One reading was taken the next morning as a final measurement.
Ki determinations were carried out using the above assay system. […] Ki(app) was calculated according to Equation 1: [formula]
The concentration of inhibitors ranged from 75 to 0.067 μM with each inhibitor concentration assayed in duplicate. The Km for the substrate was determined from a standard Lineweaver-Burke plot.

cysteine protease = experiment: Cysteine protease inhibitory activity, no method given
HeLa-H1 cells = experiment: Toxicity in uninfected cells of the cell culture 3C-protease assay; assay type: cell-based; set-up: key to TC50: —: the hyphens indicate no value was able to be calculated (i.e. the drug response did not cross the 50% point); settings: compound-treated uninfected HeLa-H1 cells, 48 hours, alamarBlue, dilution series 250-0.98 μM, several values per compound = repeat determinations; for CC50: read-out: TC50 (the source's name)
Protocol: (§4) In this assay, 96 well micro titer plates were seeded with 10^4 HeLa-H1 (ATCC) cells per well and incubated in DMEM+10% FBS (Gibco) for 24 hours at 37° C., saturated humidity and 5% CO2. Human Rhinovirus serotype 1A (ATCC) were titered to produce a 30% cell kill and added to some wells of a 96 well plate, other wells were mock infected with media only, followed by incubation at 33° C., saturated humidity and 5% CO2 for 1 hour. Compounds were dissolved in DMSO, diluted in DMEM and added in a 9 step 2-fold dilution series (250, 125, 62.5, 31.25, 15.63, 7.81, 3.91, 1.95, 0.98 μM) 1 hour after virus treatment. Plates were incubated for 48 hours at 33° C., saturated humidity and 5% CO2 in a final volume of 100 μL FBS free DMEM. Cell survival was measured by the addition of 10 μL of alamarBlue™ (BioSource), incubation at 33° C. for 45 minutes and reading in a fluorescence plate reader, excitation: 544 nm, emission: 590 nm. The inhibitory concentration 50% (IC50) was calculated as the concentration of compound that increased the percentage fluorescence in the compound-treated virus-infected cells to 50% of that produced by compound-free, uninfected cells. The toxicity concentration 50% (TC50) was calculated as the concentration of compound that decreased the percentage fluorescence in the compound-treated, uninfected cells to 50% of the compound-free, uninfected cells. The therapeutic index (Ti) was calculated by dividing the […].

[2] = molecular target: T4, Human Rhinovirus serotype 1A 3C Protease (Human rhinovirus 1A, UniProt P23008); experiment: 3C Protease Biochemical Assay (FRET); settings: 30° C., 2-6uM substrate, 416 nM 3CP
T4 construct: used to clone the 3C Protease into the expression vector pET16-b; made in house; host or cells: E. coli BL21-DE3-pLys-S
T4 sequence (P23008 1515-1697): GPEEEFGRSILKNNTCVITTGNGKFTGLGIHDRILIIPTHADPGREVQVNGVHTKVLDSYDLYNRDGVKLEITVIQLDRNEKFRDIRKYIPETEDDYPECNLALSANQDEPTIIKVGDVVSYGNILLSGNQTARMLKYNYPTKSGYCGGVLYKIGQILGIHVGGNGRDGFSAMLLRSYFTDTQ
Protocol: Human Rhinovirus serotype 1A (ATCC) was used to clone the 3C Protease into the expression vector pET16-b and transformed for production into the E. coli strain BL21-DE3-pLys-S. 3C Protease expression was induced with 1 mM IPTG at 25° C. and purified from the soluble protein extract by chromatography on a SourceQ (Pharmacia) followed by gel filtration. HRV 3CP activity was measured by fluorescence resonance energy transfer using a dimodified decapeptide substrate MOC-[…]DNP-NH2 (7-methoxy coumarin-4-acetic acid fluorochrome and dinitrophenol quencher) with a Km value of 16.8 μM. Inhibition was measured as a change in initial velocity (V0) as a function of inhibitor (I) concentration and substrate (S) concentration. […] Fluorescence was monitored by excitation at 328 nm and emission at 393 nm with 10 nm cutoffs. Data were analyzed with the nonlinear regression analysis program EnzFitter (BioSoft) with the equation:
Ki=(I/((VmaxxS)/V0)/Ks)−I−S
Substrate concentrations used were lower than the Km of the substrate (16.8 uM) so no corrections for an S/Km term were used.

[3] = tested on: Human Rhinovirus serotype 1A; experiment: Cell Culture 3C-Protease Activity Assay (protection of rhinovirus-infected cells); assay type: cell-based; settings: for IC50: HeLa-H1 cells infected with Human Rhinovirus serotype 1A, 48 hours, alamarBlue cell survival, dilution series 250-0.98 μM, several values per compound = repeat determinations
Protocol: as §4

**Q.** What does the source list for CC(C)=CCC1=C(O)C(=O)c2ccccc2C1=O [cpi0133]?
**A.** α-Chymotrypsin Activity (α-chymotrypsin): 1.081; Papain Activity (papain): 0.897; TPCK-Trypsin Activity (TPCK-trypsin): 1.196; Percent Activity [1]: 48.29%; Caspase-3 Activity [1]: 0.483

**Q.** CC(C)=CC[C@H](O)C1=CC(=O)c2c(O)ccc(O)c2C1=O [alkannin] was tested. Which “cysteine protease inhibitory activity” value (cysteine protease) did it give?
**A.** exhibit cysteine protease inhibitory activity

**Q.** Which TC50 (HeLa-H1 cells) does the source give for COC(=O)CCNc1ccc(O)c2c1C(=O)c1ccccc1C2=O [cpi0136.NS131731] here?
**A.** —, and —

**Q.** For O=c1cc(-c2ccccc2)oc2cc(O)cc(O)c12 [cpi0124], which “α-Chymotrypsin Activity” value (α-chymotrypsin) is on record?
**A.** 1.029

**Q.** And the “Papain Activity” value (papain)?
**A.** 0.445

**Q.** What about the “TPCK-Trypsin Activity” value (TPCK-trypsin) of the same molecule?
**A.** 1.075

**Q.** What about the “Percent Activity” value [1] of the same molecule?
**A.** 51.49%

**Q.** What about the “Caspase-3 Activity” value [1] of the same molecule?
**A.** 0.515

**Q.** What does the source list for O=C1C=CC(=O)c2c(O)ccc(O)c21 [cpi0131]?
**A.** α-Chymotrypsin Activity (α-chymotrypsin): 0.915; Ki [2]: 307 µM; Papain Activity (papain): 0.505; TPCK-Trypsin Activity (TPCK-trypsin): 0.819; Percent Activity [1]: −1.78%; Caspase-3 Activity [1]: −0.0178

**Q.** CC(=O)N[C@@H](CC(C)C)C(=O)N[C@@H](CC(C)C)C(=O)N[C@H](C=O)CCCNC(=N)N [Leupeptin, leupeptin, reference compound] was tested. Which “Papain Activity” value (papain) did it give?
**A.** 0.095

**Q.** CCn1cc(C(=O)O)c(=O)c2ccc(C)nc21 [cpi0176, nalidixic acid, reference compound] was tested. Which “potency as an antirhinoviral agent relative to potency as an antibiotic agent” value [3] did it give?
**A.** 10 fold

**Q.** And the Ki [2]?
**A.** 195 µM

**Q.** And the TC50 (HeLa-H1 cells)?
**A.** —, and —

**Q.** Which TC50 (HeLa-H1 cells) does the source give for COc1cccc2occc(=O)c12 [cpi0409] here?
**A.** —, and —

**Q.** CC(C)=CC[C@@H](O)C1=CC(=O)c2c(O)ccc(O)c2C1=O [shikonin] was tested. Which “cysteine protease inhibitory activity” value (cysteine protease) did it give?
**A.** exhibit cysteine protease inhibitory activity

**Q.** O=C(O)CCNc1ccc(O)c2c1C(=O)c1ccccc1C2=O [cpi0136.0012] was tested. Which IC50 [3] did it give?
**A.** 30 µM

**Q.** What about the CC50 (HeLa-H1 cells) of the same molecule?
**A.** > 30 µM

**Q.** What about the Ki [1] of the same molecule?
**A.** 1.24 µM

**Q.** What about the IC50 [1] of the same molecule?
**A.** 7.82 µM

**Q.** And the “Percent Activity” value [1]?
**A.** 7.846%

**Q.** Which “α-Chymotrypsin Activity” value (α-chymotrypsin) does the source give for NCCc1ccc(S(=O)(=O)F)cc1 [AEBSF, reference compound] here?
**A.** 0.466

**Q.** O=C(O)CN(CC(=O)O)Cc1cc2c(c(O)c1O)C(=O)c1ccccc1C2=O [cpi0136.0009] was tested. Which IC50 [3] did it give?
**A.** 0.2 µM

**Q.** What about the CC50 (HeLa-H1 cells) of the same molecule?
**A.** > 30 µM

**Q.** And the Ki [1]?
**A.** 6.16 µM

**Q.** And the IC50 [1]?
**A.** 38.8 µM

**Q.** What about the “Percent Activity” value [1] of the same molecule?
**A.** −0.4239%

B1: STI: Soybean Trypsin Inhibitor, known inhibitor control (protein, UniProt P01070 25-205, looked up)
Trypsin inhibitor A: DFVLDNEGNPLENGGTYYILSDITAFGGIRAAPTGNERCPLTVVQSRNELDKGIGTIISSPYRIRFIAEGHPLSLKFDSFAVIMLCVGIPTEWSVVEDLPEGPAVKIGENKDAMDGWFRLERVSDDEFNNYKLVFCPQQAEDDKCGDIGISIDHDDGTRRLVVSKNKPLVVQFQKLDKESL
**Q.** For B1, which “TPCK-Trypsin Activity” value (TPCK-trypsin) is on record?
**A.** 0.017
